# Results published in patent publication US4347319A, “Microbiological epoxidation process” (priority 1980, dated 1982).
# Like-named read-outs stand apart in the source and are kept apart here.
# How the values were obtained:
# [1] = test system: purified secondary alcohol dehydrogenase from Pichia sp. NRRL Y-11,328; assay: Substrate specificity, electron acceptor and stoichiometry of purified yeast SADH; type: biochemical; details: for oxidation by the purified enzyme: examined spectrophotometrically
# [2] = test system: purified secondary alcohol dehydrogenase (SADH) from Pseudomonas sp. ATCC 21439; assay: Effect of metal-chelating agents and thio reagents on purified SADH; type: biochemical
# Description: Secondary alcohol dehydrogenase (SADH) from an obligate methanol utilizer, Pseudomonas sp. ATCC 21439 was purified as follows. […] 0.05 M sodium phosphate buffer, pH 7.0 with 0.5 mM dithiothretol (buffer A) and were disrupted sonically (5×1 min.). The crude extract was separated by centrifugation. The crude extract was heat-treated at 50° C. in a water bath for 10 minutes. The resulting precipitate was removed by centrifugation. To the supernatant solution, 25 ml of protamine sulfate solution (2% solution in 0.1 M Tris base) was added dropwise with continuous stirring. After standing for 30 minutes, the extract was centrifuged. The supernatant solution was fractionated with solid ammonium sulfate. […] This DEAE-cellulose eluate was concentrated by ammonium sulfate fractionation. Material precipitating between 30 and 50% ammonium sulfate saturation was collected by centrifugation and dialyzed overnight against A. This fraction was further washed and filtered through an Amicon unit with XM 50 membrane. The concentrated fraction (6 ml) inside the Amicon unit was applied to an Affi-Gel Blue column (0.8 cm×18 cm) which had been equilibrated with buffer A for affinity chromatography. The column was washed overnight with buffer A (0.18 ml./min.) and then was eluted with buffer A containing 5 mM NAD. Each 1 ml. fraction was collected.
# The purified secondary alcohol dehydrogenase enzyme (SADH) may be used directly for converting C3 -C6 secondary alcohols to the corresponding methyl ketones by the procedures described above; however, a source of NAD^+ must be added to the reaction medium. One can determine the NAD-linked secondary alcohol dehydrogenase activity with a fluorescence spectrophotometer (Perkin Elmer, Model MPF 44A) by following the formation of reduced NAD (Ex 340 nm, Em 460 nm). The assay system (3 ml.) will typically contain: sodium phosphate buffer pH 7.0, 150 μmol; NAD 1.0 μmol; a given amount of enzyme preparation; and 20 μmol secondary alcohol. The reaction is started by the addition of secondary alcohol. One unit of SADH enzyme activity represents the reduction of one nmole NAD per minute.
# The effect of metal-chelating agents and chioreagents on the activity of the purified SADH enzyme were studied. […] The possibility of ethanol or n-propanol as an inhibitor was studied.
# [3] = test system: P(40) particulate fraction of Methylosinus sp. (CRL-15, NRRL B-11,202); assay: Effect of metals on propylene epoxidation and methane hydroxylation; type: biochemical; details: metal 10^-3 M, P(40) fraction; for Methane-Oxidizing Activity: control 4.0; for Propylene-Oxidizing Activity: control […]
# Description: (§1) The oxidation of methane and propylene by particulate [(P)40 and (P)80] fractions and soluble [S(80)] fraction was measured at 30° C. by estimating the production of methanol and propylene oxide, respectively. The reaction mixtures contained in […]: 150 mM potassium phosphate buffer, pH 7.0 containing 5 mM MgCl2 b, 0.6 ml; 10μ moles NADH, and cellular fraction.
# (§2) Reaction mixtures were contained in 10 ml vials at 4° C. Vials were sealed with rubber caps. The gaseous phase in the vials was removed using vacuum and then was replaced with a gas mixture of methane or propylene and oxygen at a 1:1, v/v ratio. Oxidation of other gaseous n-alkanes and n-alkanes was examined as described above. For liquid substrates, 10 μl of substrate was used directly.
# Since the methane mono-oxygenase from methane-utlizing bacteria is a copper or iron-containing protein (Tonge et al., J. Biochem., 161: 333-344 (1977)), we have examined the effect of copper and iron salts on the oxidation of methane and propylene by the P(40) particulate fraction of Methylosinus sp. (CRL-15, NRRL B-11,202). The rate of hydroxylation of methane to methanol and epoxidation of propylene to propylene oxide was increased twofold in the presence of added copper salts (Table XII).
# [4] = test system: Methylobacter vinelandii (CRL M5Y) NRRL B-11,218; assay: Oxidation by washed cell suspensions of methane-grown cells; type: cell-based; details: methane-grown washed cells
# Description: (§3) The pH of the nutrient medium was adjusted to 7.0 by the addition of acid or base and 50 ml samples of the nutrient medium were charged into a plurality of 300 ml shaker flasks. The shaker flasks were inoculated with an inoculating loop of cells from an agar plate containing homogeneous colonies of the microorganisms on the plate (the purity of the isolates was confirmed by microscopic examination. The isolates had been maintained on agar plates under an atmosphere of methane and air having a 1:1 v/v gas ratio which had been transferred evey two weeks. The gaseous phase of the inoculated flasks was then replaced with a gas mixture comprised of methane and air having a ratio of 1:1 on a v/v basis. The inoculated flasks were sealed air tight and were incubated on a rotary shaker of orbital radius 2.5 cm at 250 rpm and at 30° C. for two days until turbidity in the medium had developed.
# (§4) The cells were harvested by centrifugation at 10,000×g. at 4° C. for 30 minutes. The cell pellet was washed twice with a 0.15 M phosphate buffer at a pH of 7.0 (containing 0.002 M MgCl2). The washed cells were then suspended in a 0.15 M phosphate buffer at pH 7.0.
# (§5) A 0.5 ml sample of each washed cell suspension (2 mg cells) was put into 10 ml vials at 4° C. which were sealed with a rubber cap. The gaseous phase of the vials was removed with vacuum and then was replaced with a gas mixture of the oxidative substrate (e.g., methane) and oxygen at a 1:1 v/v ratio. The vials were then incubated at 30 ° C. on a rotary shaker at 300 rpm. Samples of product (3 μl) were withdrawn periodically with a microsyringe and the products were analyzed by gas chromatography (ionization flame detector column).
# (§6) The newly discovered and isolated microorganism strains of the present invention were each grown aerobically in the presence of methane in the manner described above. The methane-grown microbial cells were then washed, recovered and put to use in oxidizing an oxidative substrate by the procedure described above except in the case of a liquid substrate 10 μl of the substrate were used.
# [5] = biological target: T1, cell fractions of Methylosinus sp. (CRL-15, NRRL B-11,202) (Methylosinus trichosporium, UniProt Q50541+Q9KX50+Q9KX51); assay: Oxidation by cell fractions P(40), P(80), S(80); type: biochemical; details: P(40) particulate fraction; alkene to epoxide, alkane to alcohol; 30° C.
# T1 sequence (Q9KX50 40-431): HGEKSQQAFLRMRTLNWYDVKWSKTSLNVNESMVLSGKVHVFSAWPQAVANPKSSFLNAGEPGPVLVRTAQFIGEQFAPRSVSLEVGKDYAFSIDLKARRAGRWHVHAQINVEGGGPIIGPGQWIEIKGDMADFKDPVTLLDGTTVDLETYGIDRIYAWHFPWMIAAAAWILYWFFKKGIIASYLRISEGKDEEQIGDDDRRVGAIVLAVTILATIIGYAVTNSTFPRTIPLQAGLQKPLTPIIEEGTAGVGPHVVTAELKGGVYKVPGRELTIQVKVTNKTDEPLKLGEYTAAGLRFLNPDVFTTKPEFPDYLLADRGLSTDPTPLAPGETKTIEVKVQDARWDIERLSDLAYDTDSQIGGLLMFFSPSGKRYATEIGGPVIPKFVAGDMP
# T1 sequence (Q50541 1-252): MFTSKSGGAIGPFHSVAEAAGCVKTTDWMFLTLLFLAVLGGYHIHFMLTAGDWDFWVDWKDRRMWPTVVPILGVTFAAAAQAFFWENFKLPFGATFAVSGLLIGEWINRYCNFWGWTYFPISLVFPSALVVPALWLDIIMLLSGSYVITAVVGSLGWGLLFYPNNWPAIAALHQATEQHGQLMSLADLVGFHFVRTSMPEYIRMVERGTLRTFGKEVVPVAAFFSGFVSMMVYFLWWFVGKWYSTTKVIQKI
# T1 sequence (Q9KX51 1-256): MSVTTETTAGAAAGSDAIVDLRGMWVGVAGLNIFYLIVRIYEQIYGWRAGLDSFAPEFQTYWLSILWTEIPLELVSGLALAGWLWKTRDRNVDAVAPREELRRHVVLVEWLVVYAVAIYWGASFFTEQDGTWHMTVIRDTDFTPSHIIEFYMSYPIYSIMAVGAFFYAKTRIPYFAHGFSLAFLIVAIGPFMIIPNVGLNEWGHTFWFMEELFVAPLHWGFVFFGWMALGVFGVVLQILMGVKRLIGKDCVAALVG
# Description: Cells were washed twice with 25 mM potassium phosphate buffer, pH 7.0 containing 5 mM MgCl2. Cells were suspended in the same buffer. The cell suspensions at 4° C. were disintegrated by a single passage through a French Pressure cell (15,000 lb./in.^2) and centrifuged at 5000×g. for 15 min. to remove unbroken bacteria. The supernatant solution (crude extract) was then centrifuged at 40,000×g. for 30 min., yielding particulate P(40) and soluble S(40) fractions. The S(40) fraction was subsequently centrifuged at 80,000×g. for 60 min., yielding particulate P(80) and soluble S(80) fractions. The particulate fractions [P(40) and P(80)] were suspended in 25 mM potassium phosphate buffer, pH 7.0, containing 5 mM MgCl2 and homogenized at 4° C.
# as §1, §2
# The products of epoxidation of n-alkenes and hydroxylation of n-alkanes were assayed by flame ionization gas chromatography using a stainless steel column (12'×1/8") packed with 10% Carbowax 20 M on 80/100 Chromosorb W and Porapak Q column. The column temperature was maintained isothermally at 120° C. The carrier gas flow rate was 30 ml/min. of helium. The various products were identified by retention time comparisons and co-chromatography with authentic standards.
# Specific activities were expressed as μ moles of products formed per hour per mg. protein. Concentrations of protein in various fractions were determined by the method of Lowry et al., J. Biol. Chem., 193: 265-275 (1951).
# [6] = test system: Methylococcus capsulatus (CRL M1) NRRL B-11,219; assay: Oxidation by washed cell suspensions of methane-grown cells; type: cell-based; details: methane-grown cell-suspension; pH 7.0; 3° C.
# Description: as §3, §4, §5, §6
# [7] = test system: Methylosinus trichosporium OB3b (NRRL B-11,196); assay: Oxidation by cell suspensions of methane-grown cells; type: cell-based; details: methane-grown cell-suspension; pH 7.0; 3° C.
# [8] = test system: purified secondary alcohol dehydrogenase (SADH) from Pseudomonas sp. ATCC 21439; assay: Kinetics and substrate specificity of purified SADH; type: biochemical
# [9] = final concentration of 1 mM, measured spectrofluorometrically
compound,measurement,setting,value
"CC(O)CO (centres unmarked) [1,2-propandiol]",oxidation by the purified enzyme,[1],not oxidized
CCCCCC(C)O (centres unmarked) [2-Heptanol],oxidation by the purified enzyme,[1],not oxidized
CCCCCCC(C)O (centres unmarked) [2-octanol],oxidation by the purified enzyme,[1],not oxidized
"O=C(O)c1cc(SSc2ccc([N+](=O)[O-])c(C(=O)O)c2)ccc1[N+](=O)[O-] [5,5'-dithiobis(2-nitrobenzoic acid)]",% inhibition of SADH activity,[2]; [9],100%
[Co+2] [Co^++],% inhibition of SADH activity,[2]; [9],0%
[Cl][Cu] [Cuprous Chloride],Methane-Oxidizing Activity,[3],7.2 μmoles/hr/mg protein
same,Propylene-Oxidizing Activity,[3],9.2 μmoles/hr/mg protein
C1CCCCC1 [Cyclohexane],conversion rate cyclohexane to cyclohexanol,[4],1.5 μ moles/2 hr./mg. protein
O=C(O)CN(CCN(CC(=O)O)CC(=O)O)CC(=O)O [EDTA],% inhibition of SADH activity,[2],63%
CC [Ethane],Rate of Product Formation,[5],3.2 μ moles/hr/mg of protein
same,Conversion Rate to Ethanol,[6],2.0 μmoles/hr./mg./protein
same,Conversion Rate to Ethanol,[7],1.3 μmoles/hr./mg./protein
[Cl][Fe]([Cl])[Cl] [Ferric Chloride],Methane-Oxidizing Activity,[3],4.8 μmoles/hr/mg protein
same,Propylene-Oxidizing Activity,[3],5.8 μmoles/hr/mg protein
[Mg+2] [Mg^++],% inhibition of SADH activity,[2]; [9],0%
[Mn+2] [Mn^++],% inhibition of SADH activity,[2]; [9],0%
CCN1C(=O)C=CC1=O [N-ethylmalemide],% inhibition of SADH activity,[2]; [9],6%
[N-]=[N+]=[N-] [Sodium azide],% inhibition of SADH activity,[2]; [9],10%
[Zn+2] [Zn^++],% inhibition of SADH activity,[2]; [9],0%
O=Cc1ccccc1 [benzaldehyde],oxidation by SADH,[8],not oxidized
c1ccccc1 [benzene],oxidative conversion,[4],no oxidative conversion was detected
CCCCO [butan-1-ol],oxidation by the purified enzyme,[1],not oxidized
"CCC(O)CO (centres unmarked) [butane 1,2-diol]",oxidation by the purified enzyme,[1],not oxidized
same,oxidation by SADH,[8],not oxidized
"CC(O)CCO (centres unmarked) [butane 1,3-diol]",oxidation by the purified enzyme,[1],not oxidized
[Cu+2] [cupric],% inhibition of SADH activity,[2]; [9],25%
CCO [ethanol],oxidation by the purified enzyme,[1],not oxidized
[Fe+3] [ferric],% inhibition of SADH activity,[2]; [9],35%
[Fe+2] [ferrous],% inhibition of SADH activity,[2]; [9],50%
C=O [formaldehyde],oxidation by SADH,[8],not oxidized
O=C(O)CI [iodoacetic acid],% inhibition of SADH activity,[2],0%
CC(C)CO [isobutanol],oxidation by SADH,[8],not oxidized
CO [methanol],oxidation by the purified enzyme,[1],not oxidized
[Ni+2] [nickel],% inhibition of SADH activity,[2]; [9],20%
CCCCCO [pentan-1-ol],oxidation by the purified enzyme,[1],not oxidized
Oc1ccccc1 [phenol],oxidation by SADH,[8],not oxidized
CCCO [propan-1-ol],oxidation by the purified enzyme,[1],not oxidized
same,inhibition of SADH activity,[2],did not inhibit
CCC=O [propanal],relative percent rate of oxidation,[8]; 2-butanol = 100%,2%
O=C(O)CCC(=O)O [succinic acid],oxidation by SADH,[8],not oxidized
Cc1ccccc1 [toluene],oxidative conversion,[4],no oxidative conversion was detected
Ferrous Sulfate,Methane-Oxidizing Activity,[3],4.8 μmoles/hr/mg protein
same,Propylene-Oxidizing Activity,[3],5.9 μmoles/hr/mg protein
cytochrome c,electron acceptor / carrier,[1],could not act as electron carrier
